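48-hour exposure; five concentrations; linearly interpolated endpoints. TGI marks complete inhibition of growth.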
What was measured:
Test in all cases: growth of human tumour cells (NCI), 48 h
[1] = tested on: HOP-92 NSCLC
[2] = tested on: HS 578T breast
[3] = tested on: 786-0 renal
[4] = tested on: K-562 leukemia
[5] = tested on: A498 renal
[6] = tested on: MALME-3M melanoma
[7] = tested on: M14 melanoma
[8] = tested on: SK-MEL-5 melanoma
[9] = tested on: UACC-62 melanoma
[10] = tested on: A549 NSCLC
[11] = tested on: U251 CNS
[12] = tested on: HT29 colon
[13] = tested on: SF-539 CNS
[14] = tested on: HOP-62 NSCLC
[15] = tested on: EKVX NSCLC
[16] = tested on: MDA-MB-231 breast
[17] = tested on: KM12 colon
[18] = tested on: HCC-2998 colon
[19] = tested on: CAKI-1 renal
[20] = tested on: IGROV1 ovarian
[21] = tested on: MOLT-4 leukemia
[22] = tested on: MCF7 breast
[23] = tested on: BT-549 breast
[24] = tested on: NCI-H522 lung
[25] = tested on: NCI-H23 lung
[26] = tested on: OVCAR-5 ovarian
[27] = tested on: HCT-116 colon
[28] = tested on: SK-MEL-28 melanoma
[29] = tested on: NCI/ADR-RES ovarian
[30] = tested on: ACHN renal
[31] = tested on: SN12C renal
[32] = tested on: SK-MEL-2 melanoma
[33] = tested on: OVCAR-4 ovarian
[34] = tested on: TK-10 renal
[35] = tested on: OVCAR-8 ovarian
[36] = tested on: UO-31 renal
[37] = tested on: HL-60(TB) leukemia
[38] = tested on: HCT-15 colon
[39] = tested on: SNB-19 CNS
[40] = tested on: SR leukemia
[41] = tested on: MDA-MB-435
[42] = tested on: UACC-257 melanoma
[43] = tested on: NCI-H460 lung
[44] = tested on: SF-295 CNS
[45] = tested on: SF-268 CNS
[46] = tested on: CCRF-CEM leukemia
[47] = tested on: NCI-H226 lung
[48] = tested on: MDA-N
[49] = tested on: DU-145 prostate
[50] = tested on: SK-OV-3 ovarian
[51] = tested on: SW-620 colon
[52] = tested on: PC-3 prostate
[53] = tested on: OVCAR-3 ovarian
[54] = tested on: COLO 205 colon
[55] = tested on: RXF 393 renal
[56] = tested on: T-47D breast
[57] = tested on: RPMI-8226 leukemia
[58] = tested on: SNB-75 CNS
[59] = tested on: LOX IMVI melanoma

## CCCCCC/C=C\CCCCCCCCCc1cccc(O)c1C(=O)O
[1]
  TGI: > 100 µM
[2]
  TGI: > 100 µM
[3]
  TGI: > 100 µM
[4]
  TGI: > 100 µM
[5]
  TGI: > 100 µM
[6]
  TGI: > 100 µM
[7]
  TGI: > 100 µM
[8]
  TGI: > 100 µM
[9]
  TGI: > 100 µM
[10]
  TGI: > 100 µM
[11]
  TGI: > 100 µM
[12]
  TGI: > 100 µM
[13]
  TGI: > 100 µM
[14]
  TGI: > 100 µM
[15]
  TGI: > 100 µM
[16]
  TGI: > 100 µM
[17]
  TGI: > 100 µM
[18]
  TGI: > 100 µM
[19]
  TGI: > 100 µM
[20]
  TGI: > 100 µM
[21]
  TGI: > 100 µM
[22]
  TGI: > 100 µM
[23]
  TGI: > 100 µM
[24]
  TGI: > 100 µM
[25]
  TGI: > 100 µM
[26]
  TGI: > 100 µM
[27]
  TGI: > 100 µM
[28]
  TGI: > 100 µM
[29]
  TGI: > 100 µM
[30]
  TGI: > 100 µM
[31]
  TGI: > 100 µM
[32]
  TGI: 95.8 µM
[33]
  TGI: > 100 µM
[34]
  TGI: > 100 µM
[35]
  TGI: > 100 µM
[36]
  TGI: > 100 µM
[37]
  TGI: > 100 µM
[38]
  TGI: > 100 µM
[39]
  TGI: > 100 µM
[40]
  TGI: > 100 µM
[41]
  TGI: > 100 µM
[42]
  TGI: > 100 µM
[43]
  TGI: > 100 µM
[44]
  TGI: > 100 µM
[45]
  TGI: > 100 µM
[46]
  TGI: > 100 µM
[47]
  TGI: > 100 µM
[48]
  TGI: > 100 µM
[49]
  TGI: > 100 µM
[50]
  TGI: > 100 µM
[51]
  TGI: > 100 µM
[52]
  TGI: > 100 µM
[53]
  TGI: > 100 µM
[54]
  TGI: > 100 µM
[55]
  TGI: > 100 µM
[56]
  TGI: > 100 µM
[57]
  TGI: > 100 µM
[58]
  TGI: > 100 µM

## O=C(CN1CCNCCN(CC(=O)N2CCCCC2)CCNCC1)N1CCCCC1
[1]
  TGI: > 100 µM
[2]
  TGI: > 100 µM
[3]
  TGI: > 100 µM
[4]
  TGI: > 100 µM
[5]
  TGI: > 100 µM
[6]
  TGI: > 100 µM
[7]
  TGI: > 100 µM
[8]
  TGI: > 100 µM
[9]
  TGI: > 100 µM
[10]
  TGI: > 100 µM
[11]
  TGI: > 100 µM
[12]
  TGI: > 100 µM
[13]
  TGI: > 100 µM
[14]
  TGI: > 100 µM
[15]
  TGI: > 100 µM
[16]
  TGI: > 100 µM
[17]
  TGI: > 100 µM
[19]
  TGI: > 100 µM
[20]
  TGI: > 100 µM
[21]
  TGI: > 100 µM
[22]
  TGI: > 100 µM
[23]
  TGI: > 100 µM
[24]
  TGI: > 100 µM
[26]
  TGI: > 100 µM
[27]
  TGI: > 100 µM
[28]
  TGI: > 100 µM
[29]
  TGI: > 100 µM
[30]
  TGI: > 100 µM
[31]
  TGI: > 100 µM
[32]
  TGI: > 100 µM
[33]
  TGI: > 100 µM
[34]
  TGI: > 100 µM
[35]
  TGI: > 100 µM
[36]
  TGI: > 100 µM
[37]
  TGI: 69.4 µM
[38]
  TGI: > 100 µM
[39]
  TGI: > 100 µM
[40]
  TGI: > 100 µM
[41]
  TGI: > 100 µM
[42]
  TGI: > 100 µM
[43]
  TGI: > 100 µM
[44]
  TGI: > 100 µM
[46]
  TGI: > 100 µM
[47]
  TGI: > 100 µM
[48]
  TGI: > 100 µM
[49]
  TGI: > 100 µM
[50]
  TGI: > 100 µM
[51]
  TGI: > 100 µM
[52]
  TGI: > 100 µM
[53]
  TGI: > 100 µM
[54]
  TGI: > 100 µM
[56]
  TGI: > 100 µM
[57]
  TGI: > 100 µM
[58]
  TGI: > 100 µM
[59]
  TGI: > 100 µM
